Test results published in US11180474B2 (BRISTOL-MYERS SQUIBB COMPANY, priority 2016, dated 2021).

The compounds below were run against T1, human TLR7 (Homo sapiens, UniProt Q9NYK1) (assay: TLR7 inhibition reporter assay (HEK-Blue cells, SEAP reporter, gardiquimod stimulation)). Settings: HEK-Blue cells overexpressing human TLR7, gardiquimod 7.5 μM.
T1 construct: host or cells: HEK-Blue cells
T1 sequence (Q9NYK1 27-1049): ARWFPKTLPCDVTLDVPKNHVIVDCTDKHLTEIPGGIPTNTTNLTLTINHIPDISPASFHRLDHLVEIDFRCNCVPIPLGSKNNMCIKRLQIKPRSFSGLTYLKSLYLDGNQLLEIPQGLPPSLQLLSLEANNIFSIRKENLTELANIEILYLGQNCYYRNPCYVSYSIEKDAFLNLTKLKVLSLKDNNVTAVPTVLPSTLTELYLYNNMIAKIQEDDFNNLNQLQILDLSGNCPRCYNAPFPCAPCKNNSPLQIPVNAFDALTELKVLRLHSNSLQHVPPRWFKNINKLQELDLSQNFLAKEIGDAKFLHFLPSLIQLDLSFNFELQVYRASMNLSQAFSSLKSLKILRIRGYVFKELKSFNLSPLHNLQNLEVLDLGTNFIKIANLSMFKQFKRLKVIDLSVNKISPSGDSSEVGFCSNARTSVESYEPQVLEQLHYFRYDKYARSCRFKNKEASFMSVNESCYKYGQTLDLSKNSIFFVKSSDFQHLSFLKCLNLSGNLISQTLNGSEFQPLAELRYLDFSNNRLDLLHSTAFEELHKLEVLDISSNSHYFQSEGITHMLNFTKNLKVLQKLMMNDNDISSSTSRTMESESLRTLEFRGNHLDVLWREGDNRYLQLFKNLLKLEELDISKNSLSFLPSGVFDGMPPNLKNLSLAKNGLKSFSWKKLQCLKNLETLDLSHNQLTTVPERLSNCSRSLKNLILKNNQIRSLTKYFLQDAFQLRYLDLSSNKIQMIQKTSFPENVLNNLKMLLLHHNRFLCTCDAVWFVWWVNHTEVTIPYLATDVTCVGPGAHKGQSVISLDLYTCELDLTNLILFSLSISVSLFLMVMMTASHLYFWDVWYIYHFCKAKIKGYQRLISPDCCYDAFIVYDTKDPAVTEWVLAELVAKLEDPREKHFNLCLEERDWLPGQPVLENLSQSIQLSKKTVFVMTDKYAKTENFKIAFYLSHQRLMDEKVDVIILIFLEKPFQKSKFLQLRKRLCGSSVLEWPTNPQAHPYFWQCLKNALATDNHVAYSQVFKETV
Format: cell-based
Procedure, shortened: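 SEAP readout via HEK-Blue Detection medium after 22 h at 37 °C, 5% CO2 defines inhibition, normalized between agonist-plus-DMSO wells and a reference inhibitor. Compound dose range 0.05 nM–50 μM; TLR7 cells at 15,000/well (gardiquimod), TLR8 at 20,000/well (R848).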

IC50 | SMILES
5 nM | COc1ccc(-c2[nH]c3ccc(C4CCN(C(=O)CN5CCC[C@H](C(=O)N6CCN(C(C)C)CC6)C5)CC4)cc3c2C(C)C)cc1OC [Example 286, (S)-1-(4-(2-(3,4-dimethoxyphenyl)-3-isopropyl-1H-indol-5-yl)piperidin-1-yl)-2-(3-(4-isopropylpiperazine-1-carbonyl)piperidin-1-yl)ethan-1-one]
38 nM | COc1ccc(-c2[nH]c3ccc(C4CCN(C(=O)CN5CCC[C@H](C(=O)N6CCCC6)C5)CC4)cc3c2C(C)C)cc1OC [Example 287, (S)-1-(4-(2-(3,4-dimethoxyphenyl)-3-isopropyl-1H-indol-5-yl)piperidin-1-yl)-2-(3-(pyrrolidine-1-carbonyl)piperidin-1-yl)ethan-1-one]
44 nM | COc1ccc(-c2[nH]c3ccc(C4CCN(C(=O)CN5CCC[C@H](C(=O)N(C)C(C)C)C5)CC4)cc3c2C(C)C)cc1OC [Example 288, (S)-1-(2-(4-(2-(3,4-dimethoxyphenyl)-3-isopropyl-1H-indol-5-yl)piperidin-1-yl)-2-oxoethyl)-N-isopropyl-N-methylpiperidine-3-carboxamide]
13 nM | COc1ccc(-c2[nH]c3ccc(C4CCN(C(=O)CN5CCC[C@H](C(=O)N6CCC(N(C)C)CC6)C5)CC4)cc3c2C(C)C)cc1OC [Example 289, (S)-1-(4-(2-(3,4-dimethoxyphenyl)-3-isopropyl-1H-indol-5-yl)piperidin-1-yl)-2-(3-(4-(dimethylamino)piperidine-1-carbonyl)piperidin-1-yl)ethan-1-one]
1740 nM | COc1ccc(-c2[nH]c3ccc(C4CCN(C(=O)CN5CCC[C@H](C(=O)N6CCN(c7cccc(C(F)(F)F)c7)CC6)C5)CC4)cc3c2C(C)C)cc1OC [Example 290, (S)-1-(4-(2-(3,4-dimethoxyphenyl)-3-isopropyl-1H-indol-5-yl)piperidin-1-yl)-2-(3-(4-(3-(trifluoromethyl)phenyl)piperazine-1-carbonyl)piperidin-1-yl)ethan-1-one]
36 nM | COc1ccc(-c2[nH]c3ccc(C4CCN(C(=O)CN5CCC[C@H](C(=O)N6CCC(CCO)CC6)C5)CC4)cc3c2C(C)C)cc1OC [Example 291, (S)-1-(4-(2-(3,4-dimethoxyphenyl)-3-isopropyl-1H-indol-5-yl)piperidin-1-yl)-2-(3-(4-(2-hydroxyethyl)piperidine-1-carbonyl)piperidin-1-yl)ethan-1-one]
22 nM | COc1ccc(-c2[nH]c3ccc(C4CCN(C(=O)CN5CCC[C@H](C(=O)N6CCCC(O)C6)C5)CC4)cc3c2C(C)C)cc1OC (stereo partly drawn) [Example 292, 1-(4-(2-(3,4-dimethoxyphenyl)-3-isopropyl-1H-indol-5-yl)piperidin-1-yl)-2-((3S)-3-(3-hydroxypiperidine-1-carbonyl)piperidin-1-yl)ethan-1-one]
28 nM | COc1ccc(-c2[nH]c3ccc(C4CCN(C(=O)CN5CCC[C@H](C(=O)N6CCN(CCN7CCCC7)CC6)C5)CC4)cc3c2C(C)C)cc1OC [Example 293, (S)-1-(4-(2-(3,4-dimethoxyphenyl)-3-isopropyl-1H-indol-5-yl)piperidin-1-yl)-2-(3-(4-(2-(pyrrolidin-1-yl)ethyl)piperazine-1-carbonyl)piperidin-1-yl)ethan-1-one]
1200 nM | COc1ccc(-c2[nH]c3ccc(C4CCN(C(=O)CN5CCC[C@H](C(=O)N6CCN(Cc7ccc(Br)cc7)CC6)C5)CC4)cc3c2C(C)C)cc1OC [Example 294, (S)-2-(3-(4-(4-bromobenzyl)piperazine-1-carbonyl)piperidin-1-yl)-1-(4-(2-(3,4-dimethoxyphenyl)-3-isopropyl-1H-indol-5-yl)piperidin-1-yl)ethan-1-one]
50 nM | COc1ccc(-c2[nH]c3ccc(C4CCN(C(=O)CN5CCC[C@H](C(=O)NCCNC(C)=O)C5)CC4)cc3c2C(C)C)cc1OC [Example 295, (S)—N-(2-acetamidoethyl)-1-(2-(4-(2-(3,4-dimethoxyphenyl)-3-isopropyl-1H-indol-5-yl)piperidin-1-yl)-2-oxoethyl) piperidine-3-carboxamide]
35 nM | COc1ccc(-c2[nH]c3ccc(C4CCN(C(=O)CN5CCC[C@H](C(=O)NC6(CO)CCCC6)C5)CC4)cc3c2C(C)C)cc1OC [Example 296, (S)-1-(2-(4-(2-(3,4-dimethoxyphenyl)-3-isopropyl-1H-indol-5-yl)piperidin-1-yl)-2-oxoethyl)-N-(1-(hydroxymethyl)cyclopentyl)piperidine-3-carboxamide]
48 nM | COc1ccc(-c2[nH]c3ccc(C4CCN(C(=O)CN5CCC[C@H](C(=O)NCC#N)C5)CC4)cc3c2C(C)C)cc1OC [Example 297, (S)—N-(cyanomethyl)-1-(2-(4-(2-(3,4-dimethoxyphenyl)-3-isopropyl-1H-indol-5-yl)piperidin-1-yl)-2-oxoethyl)piperidine-3-carboxamide]
47 nM | COc1ccc(-c2[nH]c3ccc(C4CCN(C(=O)CN5CCC[C@H](C(=O)NCC(N)=O)C5)CC4)cc3c2C(C)C)cc1OC [Example 298, (S)—N-(2-amino-2-oxoethyl)-1-(2-(4-(2-(3,4-dimethoxyphenyl)-3-isopropyl-1H-indol-5-yl)piperidin-1-yl)-2-oxoethyl)piperidine-3-carboxamide]
204 nM | COc1ccc(-c2[nH]c3ccc(C4CCN(C(=O)CN5CCC[C@H](C(=O)N6CC7CNCC7C6)C5)CC4)cc3c2C(C)C)cc1OC (stereo partly drawn) [Example 299, 1-(4-(2-(3,4-dimethoxyphenyl)-3-isopropyl-1H-indol-5-yl)piperidin-1-yl)-2-((3 S)-3-(octahydropyrrolo[3,4-c]pyrrole-2-carbonyl)piperidin-1-yl)ethan-1-one]
85 nM | COc1ccc(-c2[nH]c3ccc(C4CCN(C(=O)CN5CCC[C@H](C(=O)N6C(C)CCC6C)C5)CC4)cc3c2C(C)C)cc1OC (stereo partly drawn) [Example 300, 1-(4-(2-(3,4-dimethoxyphenyl)-3-isopropyl-1H-indol-5-yl)piperidin-1-yl)-2-((3S)-3-(2,5-dimethylpyrrolidine-1-carbonyl)piperidin-1-yl)ethan-1-one]
66 nM | COc1ccc(-c2[nH]c3ccc(C4CCN(C(=O)CN5CCC[C@H](C(=O)N6CC[C@H](O)C6)C5)CC4)cc3c2C(C)C)cc1OC [Example 301, 1-(4-(2-(3,4-dimethoxyphenyl)-3-isopropyl-1H-indol-5-yl)piperidin-1-yl)-2-((S)-3-((S)-3-hydroxypyrrolidine-1-carbonyl)piperidin-1-yl)ethan-1-one]
40 nM | COc1ccc(-c2[nH]c3ccc(C4CCN(C(=O)CN5CCC[C@@H](C(=O)N6CCN(C(C)C)CC6)C5)CC4)cc3c2C(C)C)cc1OC [Example 302, (R)-1-(4-(2-(3,4-dimethoxyphenyl)-3-isopropyl-1H-indol-5-yl)piperidin-1-yl)-2-(3-(4-isopropylpiperazine-1-carbonyl)piperidin-1-yl)ethan-1-one]
30 nM | COc1ccc(-c2[nH]c3ccc(C4CCN(C(=O)CN5CCC[C@@H](C(=O)N6CCCC6)C5)CC4)cc3c2C(C)C)cc1OC [Example 303, (R)-1-(4-(2-(3,4-dimethoxyphenyl)-3-isopropyl-1H-indol-5-yl)piperidin-1-yl)-2-(3-(pyrrolidine-1-carbonyl)piperidin-1-yl)ethan-1-one]
64 nM | COc1ccc(-c2[nH]c3ccc(C4CCN(C(=O)CN5CCC[C@@H](C(=O)N(C)C(C)C)C5)CC4)cc3c2C(C)C)cc1OC [Example 304, (R)-1-(2-(4-(2-(3,4-dimethoxyphenyl)-3-isopropyl-1H-indol-5-yl)piperidin-1-yl)-2-oxoethyl)-N-isopropyl-N-methylpiperidine-3-carboxamide]
27 nM | COc1ccc(-c2[nH]c3ccc(C4CCN(C(=O)CN5CCC[C@@H](C(=O)N6CCC(N(C)C)CC6)C5)CC4)cc3c2C(C)C)cc1OC [Example 305, (R)-1-(4-(2-(3,4-dimethoxyphenyl)-3-isopropyl-1H-indol-5-yl)piperidin-1-yl)-2-(3-(4-(dimethylamino)piperidine-1-carbonyl)piperidin-1-yl)ethan-1-one]
153 nM | COc1ccc(-c2[nH]c3ccc(C4CCN(C(=O)CN5CCC[C@@H](C(=O)N6CCC(CCO)CC6)C5)CC4)cc3c2C(C)C)cc1OC [Example 306, (R)-1-(4-(2-(3,4-dimethoxyphenyl)-3-isopropyl-1H-indol-5-yl)piperidin-1-yl)-2-(3-(4-(2-hydroxyethyl)piperidine-1-carbonyl)piperidin-1-yl)ethan-1-one]
